PubChem BioAssay AID652053 (Broad Institute, 2013)

These molecules were tested on Huh7 psiCHECK-miR122 Renilla luciferase reporter, 48 h (assay: miR-122 inhibitors in Huh7 reporter cells, dose response, cell-based, Huh7 psiCHECK-miR122, Renilla luciferase, cherry-pick (AID 652053)).

SMILES	AC40
O=C(NC1CCCC1)C(c1ccccc1F)N(C(=O)Cc1cccs1)c1ccc2c(c1)OCCO2 (centres undefined)	25.9 µM
COc1ccccc1NS(=O)(=O)c1cc(Cl)ccc1OC	15.9 µM
Cc1cc(C)c(C)c(S(=O)(=O)NC2CCN(Cc3ccccc3)CC2)c1C	9.53 µM
Cc1ccc(C(C)C)cc1S(=O)(=O)NCc1ccccn1	1.38 µM
N#Cc1c(NC(=O)c2ccccc2)sc2c1CCC2	29 µM
C[C@H](CO)N1C[C@H](C)[C@@H](CN(C)Cc2ccc(C(=O)Nc3ccccc3N)cc2)Oc2c(NS(=O)(=O)c3ccccc3)cccc2C1=O	20.2 µM
COc1cc(S(=O)(=O)N2CCCCCC2)c(OC)cc1Br	1.74 µM
C[C@H](CO)N1C[C@H](C)[C@@H](CN(C)Cc2ccc(C(F)(F)F)cc2)Oc2c(NC(=O)c3nc4ccccc4s3)cccc2C1=O	2.32 µM
OC(c1cc(Cl)cc(Cl)c1)c1ncc(-c2ccccc2F)[nH]1 (centres undefined)	3.84 µM
O=C(c1ccc(F)cc1)N1C[C@H]2[C@@H](c3ccccc31)[C@@H](CO)N2C(=O)c1ccc(F)cc1	1.59 µM
CCOc1ccccc1N(CC(=O)N1CCCCCC1)S(=O)(=O)c1ccc(C)cc1	1.23 µM
Cc1ccc(S(=O)(=O)N2CCC3(CC2)OCCN3S(=O)(=O)c2cccs2)cc1	3.63 µM
COc1ccccc1N(CC(=O)N1CCCCC1C)S(=O)(=O)c1ccc(Cl)cc1 (centres undefined)	2.31 µM
O=C(Nc1sc2c(c1C(=O)O)CCCCC2)c1ccco1	2.49 µM
Cc1ccc(C)c(NS(=O)(=O)c2cc(C(=O)NCc3ccco3)ccc2C)c1	7.68 µM
CSc1cccc(NS(=O)(=O)c2cc(Br)cnc2N)c1	2.5 µM
CC1CC(C)CN(S(=O)(=O)c2ccc(NC(=O)c3ccc(=O)[nH]c3)cc2)C1 (centres undefined)	12 µM
C[C@H](CO)N1C[C@H](C)[C@@H](CN(C)Cc2ccc(C(=O)Nc3ccccc3N)cc2)Oc2ccc(N(C)C)cc2CC1=O	11.3 µM
COc1ccc(OC)c(C(c2nnnn2C2CCCC2)N2CCN(c3ccccc3F)CC2)c1 (centres undefined)	12.3 µM
C/C(CC(=O)Nc1ccccn1)=N\NC(=O)c1ccccc1O	2.59 µM
CCOc1ccc(NS(=O)(=O)c2cc(C)c(C)cc2C)cc1	2.04 µM
COc1ccc(C)cc1S(=O)(=O)NC1CCCCC1	1.31 µM
COc1ccc(S(=O)(=O)NC2CCCCC2)cc1C	3.14 µM
CN(C)Cc1ccccc1CNC(=O)c1cccc(S(=O)(=O)Nc2ccc3c(c2)OCO3)c1	2.15 µM
COc1ccc(NS(=O)(=O)c2cc(NC(=O)c3cnccn3)ccc2N2CCCC2)cc1	3.27 µM

SMILES	AC40
O=C(Nc1nc2ccc(Cl)cc2s1)c1ccco1	20.8 µM
Cc1ccc(NS(=O)(=O)c2cccc(C(=O)N(C)Cc3cccs3)c2)cc1	3.04 µM
COc1ccc(S(=O)(=O)Nc2cc(C)ccc2OC)cc1C	3.63 µM
C[C@@H]1CN([C@@H](C)CO)C(=O)Cc2cc(N(C)C)ccc2O[C@@H]1CN(C)Cc1ccc(C(=O)Nc2ccccc2N)cc1	10 µM
CC(=O)Nc1ccc(S(=O)(=O)Nc2cccc(-c3nc4ccccc4o3)c2)cc1	6.93 µM
CCN(CC)c1ccc(S(=O)(=O)Nc2cc(Cl)ccc2Cl)cc1NC(=S)NC(=O)C1CCCC1	7.34 µM
Cc1cc(C)c(C)c(S(=O)(=O)NC2CCCCC2)c1C	0.607 µM
C[C@H]1CN([C@@H](C)CO)S(=O)(=O)c2ccc(C#CCN(C)C)cc2O[C@@H]1CN(C)Cc1ccc2c(c1)OCO2	3.68 µM
CCc1c(C(=O)Nc2cc(C)cc(C)c2)[nH]c(C)c1C(C)=O	14.8 µM
CCCCCNS(=O)(=O)c1cc2c3c(c1)CCC(=O)N3CCC2	4.75 µM
Cc1ccc(NC(=O)C(OC(=O)c2ccc(F)cc2)c2ccccc2)cc1Cl (centres undefined)	2.85 µM
O=C(Nc1ccc(F)cc1)N1C[C@H]2[C@@H](c3ccccc31)[C@@H](CO)N2C(=O)c1ccc(F)cc1	10.9 µM
COc1ccc(NS(=O)(=O)c2ccc(NC(=S)NC(=O)CC(C)C)cc2)cc1	0.502 µM
CCOc1ccccc1N(CC(=O)Nc1cccnc1)S(=O)(=O)c1ccc(C)cc1	8.03 µM
C[C@]12CC[C@H](O)C[C@H]1CC[C@@H]1[C@@H]2CC[C@]2(C)[C@@H](C3=CC(=O)OC3)CC[C@]12O	5.74 µM
Cc1cc(S(=O)(=O)Nc2ccc3ccccc3c2)c(C)s1	1.06 µM
C[C@H](CO)N1C[C@H](C)[C@H](CN(C)Cc2ccc(C(=O)Nc3ccccc3N)cc2)Oc2ccc(NS(=O)(=O)c3ccc(Cl)cc3)cc2CC1=O	7.89 µM
O=C(CN(C1CCCCC1)S(=O)(=O)c1ccc(F)cc1)Nc1ccc2c(c1)OCO2	6.36 µM
COc1cccc(NS(=O)(=O)c2ccc3c(c2)N(C(C)=O)CCO3)c1	3.67 µM
Cc1cc(S(=O)(=O)N(Cc2ccccc2F)C2CC2)ccc1-n1cnnn1	1.94 µM
CCC1=Nc2cc(C(=O)NCc3ccco3)ccc2Sc2ccc(C)cc21	4.49 µM
COc1ccc(S(=O)(=O)Nc2cc3c4c(c2)CCC(=O)N4CCC3)cc1C	6.67 µM
C[C@H]1CN([C@@H](C)CO)C(=O)c2cccc(NC(=O)C3CCOCC3)c2O[C@@H]1CN(C)Cc1ccc(C(F)(F)F)cc1	1.51 µM
Cc1ccc(OC(C)C(=O)Nc2ccc(C)c(S(=O)(=O)Nc3ccc(C)cc3C)c2)cc1 (centres undefined)	12.5 µM
CC(C)CC(=O)Nc1cccc(-c2nc3ccccc3[nH]2)c1	15.6 µM

SMILES	AC40
CCOc1cc(C)c(S(=O)(=O)Nc2ccc(F)cc2)cc1C	0.908 µM
O=C(Nc1ccc(S(=O)(=O)NCc2ccccc2)cc1)Nc1ccc2c(c1)OCO2	2.08 µM
CCOC(=O)Nc1ccc(NS(=O)(=O)c2ccc(C)cc2)cc1	8.82 µM
COc1cccc(CC(=O)Nc2ccc(N3CCOCC3)c(S(=O)(=O)Nc3ccccc3OC)c2)c1	1.48 µM
Cc1ccc(S(=O)(=O)NCC[C@@H]2CC[C@@H](NC(=O)c3cnccn3)[C@H](CO)O2)cc1	10.2 µM
COc1cc(CN(C)C(=O)C(=O)c2c[nH]c3ccccc23)ccc1O	6.67 µM
COc1ccc(OC)c(-c2csc(NC(=O)Cc3ccccc3F)n2)c1	8.49 µM
COc1ccc(NS(=O)(=O)c2cc(C)ccc2NC(=O)c2cc(C)oc2C)cc1	3.23 µM
Cc1ccc(NS(=O)(=O)c2cc(OCC(N)=O)c(C)cc2Cl)cc1C	7.14 µM
C[C@H](CO)N1C[C@H](C)[C@H](CN(C)Cc2ccc(C(=O)Nc3ccccc3N)cc2)Oc2ccc(NC(=O)Nc3cccc4ccccc34)cc2CC1=O	16.9 µM
Cc1sc2ncn(CC(=O)N(CC(=O)NC3CCCC3)Cc3cccs3)c(=O)c2c1C	20 µM
O=C(Nc1ccccc1F)N1C[C@H]2[C@@H](c3ccccc31)[C@@H](CO)N2C(=O)c1ccc(F)cc1	1.25 µM
COc1ccc(NC(=O)Nc2ccc3c(c2)C(=O)N([C@H](C)CO)C[C@@H](C)[C@@H](CN(C)S(=O)(=O)c2ccc(OC)cc2)O3)cc1	1.21 µM
OCC1OC(n2cnc3c(NCc4ccccc4O)ncnc32)C(O)C1O (centres undefined)	3.86 µM
Cc1c(C(=O)OC2CCCC2)[nH]c2c1C(=O)CC(c1ccco1)C2 (centres undefined)	5.77 µM
C[C@H](CO)N1C[C@H](C)[C@H](CN(C)CC2CCCCC2)Oc2c(NC(=O)C3CCOCC3)cccc2C1=O	1.95 µM
CCc1ccc(OC)c(S(=O)(=O)Nc2ccccc2C)c1	1.03 µM
COc1ccc(NS(=O)(=O)c2cc(OC)ccc2OC)cc1	5.31 µM
O=C(C[C@@H]1C[C@H]2c3cc(NS(=O)(=O)c4ccc(F)cc4)ccc3O[C@H]2[C@H](CO)O1)NCc1ccc(-c2ccccc2)cc1	5.24 µM
Cc1ccc(S(=O)(=O)Nc2ccc3ncccc3c2)cc1	11.6 µM
COc1ccc(S(=O)(=O)Nc2cc3c(C(C)=O)c(C)oc3c3ccccc23)cc1	14.9 µM
COc1ccc(S(=O)(=O)NCc2ccccn2)cc1NC(=O)c1ccc(C)cc1	7.81 µM
Cc1cc(C)cc(NS(=O)(=O)c2ccc(NC(=S)NC(=O)c3cccs3)cc2)c1	< 0.26 µM
C[C@H](CO)N1C[C@H](C)[C@@H](CN(C)Cc2ccc3c(c2)OCO3)Oc2c(NC(=O)c3ccncc3)cccc2C1=O	13.1 µM
C[C@H]1CN([C@@H](C)CO)C(=O)c2cccc(NC(=O)Nc3ccc(C(F)(F)F)cc3)c2O[C@@H]1CN(C)CC1CCCCC1	3.47 µM

SMILES	AC40
COc1cc(C)c(C(C)C)cc1S(=O)(=O)NC1CC(C)(C)NC(C)(C)C1	0.59 µM
COc1ccccc1N/C(=N/S(=O)(=O)c1ccc(C)cc1)c1ccccc1	9.99 µM
COc1ccccc1CN1[C@H](CO)[C@@H]2c3ccccc3N(C(=O)c3ccc(F)cc3)C[C@@H]21	30 µM
Cc1cc(S(=O)(=O)NCC(c2ccccc2)c2ccccc2)ccc1-n1cnnn1	2.23 µM
S=C(NCC1CCCCC1)Nc1ccc(Oc2ccccc2)cc1	14.6 µM
CCOc1cc(C)c(C(C)C)cc1S(=O)(=O)n1ccc(C)n1	7.45 µM
CCc1c(C(=O)Nc2ccc(OC)cc2)[nH]c(C)c1C(C)=O	5.6 µM
O=S(=O)(NCCOCC(F)(F)C(F)F)c1ccc2oc3ccccc3c2c1	15.3 µM
CCN(CC)S(=O)(=O)c1ccc(C)c(NCC(=O)Nc2ccc(C#N)c(Cl)c2)c1	1.77 µM
CCOc1ccccc1NC(=O)Cn1nnc(C(=O)NCc2cccs2)c1N	5.91 µM
Cc1ccc(S(=O)(=O)Nc2ccc(C(=O)Nc3cc(C)on3)cc2)cc1	1.44 µM
COc1ccc(S(=O)(=O)Nc2ccc(CC#N)cc2)cc1	11.9 µM
Cc1cccc(NS(=O)(=O)c2ccc(C3CCCCC3)cc2)c1	13.2 µM
COc1ccccc1NS(=O)(=O)c1cccc(NC(=O)c2[nH]c(C)c(C(C)=O)c2C)c1	7.17 µM
CC(OC(=O)c1cccc(S(=O)(=O)Nc2cccc(C(F)(F)F)c2)c1)C(=O)Nc1ccc2c(c1)OCCO2 (centres undefined)	3.57 µM
Cc1ccc2ccccc2c1C(O)c1ncc(-c2ccccc2F)[nH]1 (centres undefined)	4.22 µM
COCCNC(=O)C[C@@H]1CC[C@H]2[C@H](COc3ccc(NC(=O)Cc4ccccc4)cc3C(=O)N2C)O1	1.34 µM
COc1ccc(S(=O)(=O)N2CC[C@@H]3[C@H](CO)N(C)c4ccc(-c5ccc(F)cc5)cc4[C@@H]32)cc1	7.49 µM
CC(C)c1ccc(NC(=O)Cc2cn(C)c3ccccc23)cc1	11.9 µM
S=C(Nc1ccccc1Cl)NC1CCCCCC1	17.2 µM
CCOC(=O)CNS(=O)(=O)c1cc(-c2nnc(Nc3ccc4c(c3)OCO4)c3ccccc23)ccc1C	2.63 µM
OC(c1ccc(Cl)c(Cl)c1)c1ncc(-c2ccccc2F)[nH]1 (centres undefined)	3.49 µM
Cc1ccc(NS(=O)(=O)c2csc(C(N)=O)c2)cc1C	3.14 µM
COc1ccc(-c2ccc3c(c2)CN(C(=S)NCCc2ccccc2)Cc2cnnn2-3)cc1	2.2 µM
